In patent publication US11066414B2, “Cot modulators and methods of use thereof” (Gilead Sciences, Inc., priority 2015, dated 2021) one finds EC50 and IC50 data, which are given here for 17 compounds.

In one experiment the test system is TNFα. Description: Cot Monocyte TNFα Cell Based Assay.
A further experiment concerns the target Human Cot (Homo sapiens (Human), UniProt P41279). As to the kind of experiment: High Throughput Cot Biochemical Assay.
Setting [1] is: Homo sapiens, Monocyte, read-out: EC50 TNF, LPS-stimulated human monocytes, TNFα.
Where [2] appears, read: IC50 HTRF, Cot HTRF (TR-FRET) biochemical assay.
The mark [3] stands for this setting: read-out: EC50 TNF, LPS-stimulated human monocytes, TNFα.
Where [4] appears, read: read-out: IC50 HTRF, Cot HTRF (TR-FRET) biochemical assay.

Molecules are shown by their SMILES. Where two headings read alike, the source gives them in different places.

Chain of Human Cot (P41279 30-397): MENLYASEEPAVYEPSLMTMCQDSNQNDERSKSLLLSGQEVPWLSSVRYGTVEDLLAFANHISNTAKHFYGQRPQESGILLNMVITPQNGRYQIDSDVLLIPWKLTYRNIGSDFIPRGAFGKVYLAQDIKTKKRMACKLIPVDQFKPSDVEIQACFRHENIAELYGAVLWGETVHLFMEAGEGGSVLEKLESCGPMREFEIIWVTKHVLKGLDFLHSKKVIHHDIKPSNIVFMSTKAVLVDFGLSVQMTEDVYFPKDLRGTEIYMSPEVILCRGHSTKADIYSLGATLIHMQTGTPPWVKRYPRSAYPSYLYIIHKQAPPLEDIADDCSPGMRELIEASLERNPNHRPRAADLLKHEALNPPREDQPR

In the case of `[2H]C([2H])([2H])C([2H])([2H])[C@@H](Nc1c(C#N)cnc2c(Cl)cc(N[C@]([2H])(c3ccc(F)nc3)c3cn(C4CC4)nn3)cc12)c1ccccc1` [Example 108, 8-chloro-6-(((R)-(1-cyclopropyl-1H-1,2,3-triazol-4-yl)(6-fluoropyridin-3-yl)methyl-d)amino)-4-(((R)-1-phenyl-propyl-2,2,3,3,3-d5)amino)quinoline-3-carbonitrile], the EC50 in the experiment with TNFα (setting [1]) was above 10000 nM. For the same compound, inhibition against Human Cot (setting [2]) was half-maximal at 913 nM (IC50).
Consider `Cn1ccc2c([C@H](Nc3cc(C#N)c4ncc(C#N)c(NCC(C)(C)C(F)(F)F)c4c3)c3cn(C45CC(C4)C5)nn3)cccc2c1=O` [Example 883, (S)-6-(((1-(bicyclo[1.1.1]pentan-1-yl)-1H-1,2,3-triazol-4-yl)(2-methyl-1-oxo-1,2-dihydroisoquinolin-5-yl)methyl)amino)-4-((3,3,3-trifluoro-2,2-dimethylpropyl)amino)quinoline-3,8-dicarbonitrile], for which the EC50 in the experiment with TNFα (Homo sapiens, Monocyte, read-out: EC50 TNF, LPS-stimulated human monocytes, TNFα TR-FRET) is 13 nM. The compound also gave an IC50 on Human Cot (IC50 HTRF, Cot HTRF (TR-FRET KinEASE) biochemical assay, 400 μM ATP) of 1 nM.
On to `CCc1nc(F)ccc1[C@H](Nc1cc(Cl)c2ncc(C#N)c(NCC(C)(C)C)c2c1)c1cn(C2(C(F)F)CC2)nn1` [Example 592, (S)-8-chloro-6-(((1-(1-(difluoromethyl)cyclo-propyl)-1H-1,2,3-triazol-4-yl)(2-ethyl-6-fluoropyridin-3-yl)methyl)amino)-4-(neopentylamino)quinoline-3-carbonitrile], for which the EC50 in the experiment with TNFα (setting [1]) is 78 nM. The compound further displayed an IC50 against Human Cot (setting [2]) of 5 nM.
In the same order, the values of `Cc1ccc([C@H](Nc2cc(Cl)c3ncc(C#N)c(Nc4ccc(F)c(Cl)c4)c3c2)c2c[nH]nn2)cn1` [Example 271, (S)-8-chloro-4-((3-chloro-4-fluorophenyl)amino)-6-(((6-methylpyridin-3-yl)(1H-1,2,3-triazol-4-yl)methyl)amino)quinoline-3-carbonitrile] are 826 nM and 9 nM.
In the same order, the values of `COCCOCCn1cc([C@@H](Nc2cc(Cl)c3ncc(C#N)c(Nc4ccc(F)c(Cl)c4)c3c2)c2cccnc2)nn1` [Example 340, (S)-8-chloro-4-((3-chloro-4-fluorophenyl)amino)-6-(((1-(2-(2-methoxyethoxy)ethyl)-1H-1,2,3-triazol-4-yl)(pyridin-3-yl)methyl)-amino)quinoline-3-carbonitrile] are 328 nM and 8 nM.
In the same order, the values of `CC(C)(C)CNc1c(C#N)cnc2c(Cl)cc(N[C@H](c3cn(C4(C#N)CC4)nn3)c3cccc4ncsc34)cc12` [Example 415, (S)-6-((benzo[d]thiazol-7-yl(1-(1-cyanocyclopropyl)-1H-1,2,3-triazol-4-yl)methyl)amino)-8-chloro-4-(neopentylamino)quinoline-3-carbonitrile] are 67 nM and 3 nM.
For the compound `N#Cc1cnc2c(Cl)cc(N[C@@H](c3cocn3)c3c[nH]nn3)cc2c1N[C@H](CO)c1ccccc1` [Example 215, 8-chloro-4-(((S)-2-hydroxy-1-phenylethyl)amino)-6-(((S)-o)(azol-4-yl(1H-1,2,3-triazol-4-yl)methyl)amino)quinoline-3-carbonitrile], in the experiment on TNFα (setting [3]), the EC50 is above 10000 nM. In addition, the IC50 at Human Cot (setting [4]) came to 258 nM.
With `Cc1nc(F)ccc1[C@@H](Nc1cc(Cl)c2ncc(C#N)c(N[C@H](CCC#N)c3ccccc3)c2c1)c1cn(C2CC2)nn1` [Example 438, 8-chloro-4-(((R)-3-cyano-1-phenyl-propyl)amino)-6-(((R)-(1-cyclopropyl-1H-1,2,3-triazol-4-yl)(6-fluoro-2-methylpyridin-3-yl)methyl)amino)-quinoline-3-carbonitrile], the EC50 with TNFα (setting [1]) was determined as 1000 nM. The compound further returned an IC50 at Human Cot (setting [2]) of 473 nM.
On to `COc1nccc2c([C@H](Nc3cc(C#N)c4ncc(C#N)c(NCC(C)(C)C)c4c3)c3cn(C(CF)CF)nn3)cccc12` [Example 825, (S)-6-(((1-(1,3-difluoropropan-2-yl)-1H-1,2,3-triazol-4-yl)(1-methoxylsoquinolin-5-yl)methyl)amino)-4-(neopentylamino)quinoline-3,8-dicarbonitrile], for which the concentration for a half-maximal effect (EC50) in the experiment on TNFα (read-out: EC50 TNF, LPS-stimulated human monocytes, TNFα TR-FRET) is 113 nM. Besides, the IC50 on Human Cot (read-out: IC50 HTRF, Cot HTRF (TR-FRET KinEASE) biochemical assay, 400 μM ATP) stood at 7 nM.
`N#Cc1cnc2c(Cl)cc(N[C@@H](c3cccnc3)c3cn(C4COC4)nn3)cc2c1Nc1cccc(Cl)c1` [Example 196, (S)-8-chloro-4-((3-chlorophenyl)amino)-6-(((1-(oxetan-3-yl)-1H-1,2,3-triazol-4-yl)(pyridin-3-yl)methyl)amino)quinoline-3-carbonitrile]: the EC50 in the experiment on TNFα (setting [1]) is 668 nM. The half-maximal inhibitory concentration (IC50) on Human Cot (setting [2]) is 6 nM.
The corresponding values for `CC1(C)COCCC1Nc1c(C#N)cnc2c(C#N)cc(N[C@H](c3cn(C4(C(F)(F)F)CC4)nn3)c3cccc4ncsc34)cc12` (stereo partly drawn) [Example 452, 6-(((S)-benzo[d]thiazol-7-yl(1-(1-(trifluoromethyl)cyclopropyl)-1H-1,2,3-triazol-4-yl)methyl)amino)-4-((3,3-dimethyltetrahydro-2H-pyran-4-yl)amino)quinoline-3,8-dicarbonitrile] are 73 nM and 4 nM.
The corresponding values for `C[C@@H](Nc1c(C#N)cnc2c(Cl)cc(N[C@@H](c3cccnc3)c3cn(C4CCN(C(C)(C)C)CC4)nn3)cc12)c1ccccc1` [Example 259, 6-(((S)-(1-(1-(tert-butyl)piperidin-4-yl)-1H-1,2,3-triazol-4-yl)(pyridin-3-yl)methyl)amino)-8-chloro-4-(((R)-1-phenylethyl)amino)quinoline-3-carbonitrile] are 158 nM and 6 nM.
In the case of `CC(C)n1cc([C@@H](Nc2cc(Cl)c3ncc(C#N)c(N[C@H](CCO)c4ccccc4)c3c2)c2cccnc2)nn1` [Example 185, 8-chloro-4-(((R)-3-hydroxy-1-phenylpropyl)amino)-6-(((S)-(1-isopropyl-1H-1,2,3-triazol-4-yl)(pyridin-3-yl)methyl)amino)quinoline-3-carbonitrile], in the experiment on TNFα (setting [1]), the EC50 was determined as 9740 nM. On Human Cot (setting [2]), this compound displayed a half-maximal inhibitory concentration (IC50) of 305 nM.
On to `CC(C)(C)CNc1c(C#N)cnc2c(C#N)cc(N[C@H](c3cn(C4(C(N)=O)CC4)nn3)c3cccc4cnccc34)cc12` [Example 586, (S)-1-(4-(((3,8-dicyano-4-(neopentylamino)-quinolin-6-yl)atnino)(isoquinolin-5-yl)methyl)-1H-1,2,3-triazol-yl)cyclopropane-1-carboxamide], for which the 50% effective concentration (EC50) in the experiment with TNFα (setting [3]) worked out at 1000 nM. The IC50 on Human Cot (setting [4]) amounted to 2 nM.
With `CCc1nc(F)ccc1[C@H](Nc1cc(C#N)c2ncc(C#N)c(NCC(C)(C)C)c2c1)c1cn(C2(C(F)F)CC2)nn1` [Example 597, (S)-6-(((1-(1-(difluoromethyl)cyclopropyl)-1H-1,2,3-triazol-4-yl)(2-ethyl-6-fluoropyridin-3-yl)methyl)amino)-4-(neopentylamino)quinoline-3,8-dicarbonitrile], the EC50 with TNFα (setting [1]) amounted to 150 nM. Further, half-maximal inhibition against Human Cot (setting [2]) (IC50) required 3 nM.
With `CC(C)(C)CNc1c(C#N)cnc2c(C#N)cc(N[C@H](c3cn(C4(CF)CC4)nn3)c3cccc4cnccc34)cc12` [Example 569], the concentration giving a half-maximal response (EC50) in the experiment on TNFα (setting [3]) was 171 nM. For the same compound, the IC50 at Human Cot (setting [4]) worked out at 7 nM.
`CC(C)n1cc([C@@H](Nc2cc(Cl)c3ncc(C#N)c(Nc4ccc(F)c(Cl)c4)c3c2)c2ccnn2C)nn1` [Example 304, (S)-8-chloro-4-((3-chloro-4-fluorophenyl)amino)-6-(((1-isopropyl-1H-1,2,3-triazol-4-yl)(1-methyl-1H-pyrazol-5-yl)methyl)amino)quinoline-3-carbonitrile]: the concentration for a half-maximal effect (EC50) with TNFα (setting [1]) was found to be 234 nM. Moreover, the half-inhibitory concentration (IC50) on Human Cot (setting [2]) worked out at 6 nM.
